Key:
Format in all cases: physicochemical, human
[1] = LC/MS of blood plasma sample: time from blood collection to centrifugation (Table D); settings: for Increase or decrease: detection intensity; for Increase or decrease / Rate of increase or decrease: blood collection to centrifugation; for Rate of increase or decrease: detection intensity relative to 1 at 15 minutes
Procedure, shortened: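 Healthy-subject blood (5 mL, EDTA) cooled and held at 4 °C before centrifugation (4 °C, 3000 rpm, 15 min), with plasma then frozen. LC/MS on Discovery HS F5-3 column at 40 °C, 0.1% formic acid water/acetonitrile, 0.25 mL/min, electrospray, MRM; intensities relative to 15 min collection-to-centrifugation set as 1.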

[2] = LC/MS of serum sample: number of times of freezing and thawing (Table M); set-up: key to Rate of increase or decrease: detection intensity relative to 1 at 2 freeze-thaw cycles; settings: for Number of times when compound is affected / Increase or decrease: serum sample, LC/MS; for Number of times when compound is affected: detection intensity changed by 30% or more vs 2 times of freezing and thawing; for Increase or decrease: detection intensity vs 2 times of freezing and thawing
Procedure, shortened: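 Serum was isolated at room temperature after centrifugation at room temperature, 3500 rpm, 5 minutes, then frozen and freeze-thawed 2, 4, 6 or 10 times. LC/MS used a Discovery HS F5-3 column at 40° C with formic acid water/acetonitrile, electrospray MRM. Intensity is relative to 2 freeze-thaw cycles.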

[3] = GC/MS of serum sample: number of times of freezing and thawing (Table I); set-up: key to Rate of increase or decrease / Rate of increase or decrease (first value, increase): detection intensity relative to 2 freeze-thaw cycles = 1
Procedure, shortened: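 Serum was isolated after centrifugation at room temperature (3500 rpm, 5 min), frozen, and put through 2, 4, 6 or 10 freeze–thaw cycles. Samples were methoxymated and trimethylsilylated, then run by electron-ionization GC/MS in MRM mode on a BPX5 column (60 to 330 °C). Detection intensity is given relative to the 2-cycle sample, set as 1.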

[4] = GC/MS of blood plasma sample: time from blood collection to centrifugation (Table A); settings: for Rate of increase or decrease: detection intensity relative to 1 at 15 minutes; for Rate of increase or decrease / Increase or decrease: blood collection to centrifugation; for Increase or decrease: detection intensity, after 4 hours vs 15 minutes
Procedure, shortened: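 EDTA blood from a healthy subject was cooled at 4° C, centrifuged at 4° C, 3000 rpm, 15 minutes, and plasma was frozen. After methoxymation and trimethylsilylation, samples ran on GC/MS (BPX5 column, 60-330° C gradient, electron ionization, MRM). Intensity is relative to 15 minutes from collection to centrifugation.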

[5] = GC/MS of blood plasma sample: time from blood collection to cooling of blood (Table B); set-up: key to Rate of increase or decrease / Rate of increase or decrease (first value, increase): detection intensity relative to 1 at cooling time ≤1 min; settings: for Rate of increase or decrease: detection intensity relative to 1 at 1 minute or less, blood collection to cooling 5 minutes; for Increase or decrease: detection intensity, blood collection to cooling 5 minutes or more vs 1 minute or less
Procedure, shortened: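 Blood drawn at room temperature into EDTA tubes, mixed, then cooled at 4° C. within 1 minute or less versus 5 minutes or more before centrifugation (4° C., 3000 rpm, 15 minutes). Plasma was frozen, methoxymated and trimethylsilylated, and analysed by EI GC/MS in MRM mode. Values are detection intensity relative to the ≤1 minute condition.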

[6] = LC/MS of serum sample: time from centrifugation to isolation (Table K); set-up: key to Rate of increase or decrease: detection intensity relative to the 30-minute value set as 1; settings: for Rate of increase or decrease: after 6 hours from centrifugation to isolation, detection intensity relative to 1 at 30 minutes; for Increase or decrease / Time when compound is affected: serum sample, LC/MS; for Increase or decrease: detection intensity vs 30 minutes from centrifugation to isolation; for Time when compound is affected: time from centrifugation to isolation, detection intensity changed by 30% or more vs 30 minutes
Procedure, shortened: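 Serum left at room temperature 30 min, 1 h or 6 h between centrifugation (3500 rpm, 5 min, room temperature) and isolation, then frozen and analysed by LC/MS (Discovery HS F5-3 column, 40° C., 0.1% formic acid water/acetonitrile, electrospray, MRM). Values are detection intensity relative to the 30-min condition set to 1.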

[7] = different from individual to individual, individuals with decrease, relative to 1 at 15 minutes, collection to centrifugation, after 4 hours
[8] = different from individual to individual, individuals with increase, relative to 1 at 15 minutes, collection to centrifugation, after 4 hours
[9] = 4 times of freezing and thawing, relative to 1 at 2 times, different from individual to individual, first value (increase)
[10] = 4 times of freezing and thawing, relative to 1 at 2 times, different from individual to individual, second value (decrease)

SMILES | Increase or decrease ([1]; after 6 hours vs 15 minutes) | Number of times when compound is affected [2] | Increase or decrease [2] | Rate of increase or decrease ([4]; after 4 hours) | Increase or decrease [4] | Rate of increase or decrease [5] | Increase or decrease [5] | Increase or decrease ([1]; after 4 hours vs 15 minutes) | Rate of increase or decrease [2, 9] | Rate of increase or decrease [2, 10] | Rate of increase or decrease [6] | Increase or decrease [6] | Time when compound is affected [6] | other results
CC(C)(CO)[C@@H](O)C(=O)NCCC(=O)O [Pantothenic acid] | Increase | 10 times | Decrease | 3.15 | Increase | 3.56 | Increase | – | – | – | – | – | – | Rate of increase or decrease ([2]; 10 times of freezing and thawing, detection intensity relative to 1 at 2 times): 0.55; Rate of increase or decrease ([3]; detection intensity relative to 1 at 2 times, serum, GC/MS, freezing and thawing 4 times): 1.39; Increase or decrease ([3]; detection intensity, serum, GC/MS, freezing and thawing 4 times vs 2 times): Increase
O=c1[nH]cnc2nc[nH]c12 [Hypoxanthine] | – | 4 times | Different from individual | – | – | – | – | Different from individual | 1.35 | 0.61 | 2.78 | Increase | After 6 hours | Rate of increase or decrease (second value, decrease) [1, 7]: 0.70; Rate of increase or decrease (first value, increase) [1, 8]: 3.84; Rate of increase or decrease ([3]; 10 times of freezing and thawing, relative to 1 at 2 times, different from individual to individual, first value (increase)): 1.47; Rate of increase or decrease ([3]; 10 times of freezing and thawing, relative to 1 at 2 times, different from individual to individual, second value (decrease)): 0.66; Number of times when compound is affected ([3]; serum sample, GC/MS, detection intensity changed by 30% or more vs 2 times of freezing and thawing): 10 times; Increase or decrease ([3]; serum sample, GC/MS, detection intensity vs 2 times of freezing and thawing): Different from individual
NC(=O)NC1NC(=O)NC1=O (centres unmarked) [Allantoin] | – | 4 times | Increase | 0.18 | Decrease | – | Different from individual | Decrease | – | – | 10.46 | Increase | After 6 hours | Rate of increase or decrease ([1]; after 4 hours): 0.52; Rate of increase or decrease ([2]; 4 times of freezing and thawing, detection intensity relative to 1 at 2 times): 3.27; Rate of increase or decrease ([3]; detection intensity relative to 1 at 2 times, serum, GC/MS, freezing and thawing 10 times): 2.94; Increase or decrease ([3]; detection intensity, serum, GC/MS, freezing and thawing 10 times vs 2 times): Increase; Rate of increase or decrease (second value, decrease) ([5]; different from individual to individual, individuals with decrease, relative to 1 at 1 minute or less, collection to cooling 5 minutes): 0.57; Rate of increase or decrease (first value, increase) ([5]; different from individual to individual, individuals with increase, relative to 1 at 1 minute or less, collection to cooling 5 minutes): 1.30
O=c1[nH]c(=O)c2[nH]cnc2[nH]1 [Xanthine] | Increase | 4 times | Different from individual | – | Different from individual | 0.45 | Decrease | – | 1.37 | 0.70 | 2.50 | Increase | After 6 hours | Rate of increase or decrease ([1]; after 6 hours): 1.39; Rate of increase or decrease (second value, decrease) [4, 7]: 0.49; Rate of increase or decrease (first value, increase) [4, 8]: 1.83
